Assay results reported in patent US20040241152A1, “Methods for inducing an immune response with an elevated th1/th2 ratio, by intracellular induction of nfkappab” (priority 2001, published 2004).

B1: CD80: costimulatory molecule incorporated into DNA vaccines (protein, UniProt P33681 35-288, looked up)
T-lymphocyte activation …: VIHVTKEVKEVATLSCGHNVSVEELAQTRIYWQKEKKMVLTMMSGDMNIWPEYKNRTIFDITNNLSIVILALRPSDEGTYECVVLKYEKDAFKREHLAEVTLSVKADFPTPSISDFEIPTSNIRRIICSTSGGFPEPHLSWLENGEELNAINTTVSQDPETELYAVSSKLDFNMTTNHSFMCLIKYGHLRVNQTFNWNTTKQEHFPDNLLPSWAITLISVNGIFVICCLTYCFAPRCRERRRNERLRRESVRPV
B2: CD86: costimulatory molecule incorporated into DNA vaccines (protein, UniProt P42081 24-329, looked up)
T-lymphocyte activation …: APLKIQAYFNETADLPCQFANSQNQSLSELVVFWQDQENLVLNEVYLGKEKFDSVHSKYMGRTSFDSDSWTLRLHNLQIKDKGLYQCIIHHKKPTGMIRIHQMNSELSVLANFSQPEIVPISNITENVYINLTCSSIHGYPEPKKMSVLLRTKNSTIEYDGVMQKSQDNVTELYDVSISLSVSFPDVTSNMTIFCILETDKTRLLSSPFSIELEDPQPPPDHIPWITAVLPTVIICVMVFCLILWKWKKKKRPRNSYKCGTNTMEREESEQTKKREKIHIPERSDEAQRVFKSSKTSSCDKSDTCF
B3: CD40L: costimulatory molecule incorporated into DNA vaccines (protein, UniProt P29965 113-261, looked up)
CD40 ligand, soluble form: MQKGDQNPQIAAHVISEASSKTTSVLQWAEKGYYTMSNNLVTLENGKQLTVKRQGLYYIYAQVTFCSNREASSQAPFIASLCLKSPGRFERILLRAANTHSSAKPCGQQSIHLGGVFELQPGASVFVNVTDPSQVSHGTGFTSFGLLKL
B4: LFA-3: costimulatory molecule incorporated into DNA vaccines (protein, UniProt P19256 29-250, looked up)
Lymphocyte …: FSQQIYGVVYGNVTFHVPSNVPLKEVLWKKQKDKVAELENSEFRAFSSFKNRVYLDTVSGSLTIYNLTSSDEDEYEMESPNITDTMKFFLYVLESLPSPTLTCALTNGSIEVQCMIPEHYNSHRGLIMYSWDCPMEQCKRNSTSIYFKMENDLPQKIQCTLSNPLFNTTSSIILTTCIPSSGHSRHRYALIPIPLAVITTCIVLYMNGILKCDRKPDRTNSN
B5: CD54: costimulatory molecule incorporated into DNA vaccines (protein, UniProt P05362 28-532, looked up)
Intercellular adhesion …: QTSVSPSKVILPRGGSVLVTCSTSCDQPKLLGIETPLPKKELLLPGNNRKVYELSNVQEDSQPMCYSNCPDGQSTAKTFLTVYWTPERVELAPLPSWQPVGKNLTLRCQVEGGAPRANLTVVLLRGEKELKREPAVGEPAEVTTTVLVRRDHHGANFSCRTELDLRPQGLELFENTSAPYQLQTFVLPATPPQLVSPRVLEVDTQGTVVCSLDGLFPVSEAQVHLALGDQRLNPTVTYGNDSFSAKASVSVTAEDEGTQRLTCAVILGNQSQETLQTVTIYSFPAPNVILTKPEVSEGTEVTVKCEAHPRAKVTLNGVPAQPLGPRAQLLLKATPEDNGRSFSCSATLEVAGQLIHKNQTRELRVLYGPRLDERDCPGNWTWPENSQQTPMCQAWGNPLPELKCLKDGTFPLPIGESVTVTRDLEGTYLCRARSTQGEVTRKVTVNVLSPRYEIVIITVVAAAVIMGTAGLSTYLYNRQRKIKKYRLQQAQKGTPMKPNTQATPP
B6: IL-7: cytokine incorporated into DNA vaccines (protein, UniProt P13232 26-177, looked up)
Interleukin-7: DCDIEGKDGKQYESVLMVSIDQLLDSMKEIGSNCLNNEFNFFKRHICDANKEGMFLFRAARKLRQFLKMNSTGDFDLHLLKVSEGTTILLNCTGQVKGRKPAALGEAQPTKSLEENKSLKEQKKLNDLCFLKRLLQEIKTCWNKILMGTKEH

Tested on: mice
Experiment: not given
Details: gene incorporated into allergen DNA vector; cited from earlier work

Molecule | airway hyperresponsiveness
IL-18: cytokine (gene) incorporated into DNA vaccines | successfully reverse airway hyperresponsiveness

Tested on: NF-κB
Experiment: Preliminary work: NF-κB induction and APC/DC function
Type: cell-based
Details: not given

Molecule | induction of NF-κB and enhancement of APC/DC function
MEKK1: kinase named as NF-κB inducer | can induce NF-κB and enhance APC such as DC function

Tested on: not given
Experiment: not given
Details: molecule incorporated into DNA vaccine; cited from earlier work

Molecule | Cellular response | CTL | Antibody
CTLA4: costimulatory molecule incorporated into DNA vaccines | ↑proliferation |  | 
GM-CSF: cytokine incorporated into DNA vaccines |  | ↑CTL | 
IFNγ: cytokine incorporated into DNA vaccines |  | ↑CTL | 
IL-5: cytokine incorporated into DNA vaccines |  |  | ↑IgG
IL-15: cytokine incorporated into DNA vaccines | ±↑proliferation | ↑CTL | IgG?
IL-18: cytokine (gene) incorporated into DNA vaccines | ↑proliferation | ↑CTL | ↑IgG
TGF-β |  |  | ↑IgG1
B1 |  | ↑CTL | 
B2 |  | ↑CTL | 
B3 | ↑IFNγ | ↑CTL | 
B4 |  | ↑CTL | 
B5 |  | ↑CTL | 
B6 | ↑IFNγ |  | 

Tested on: CD14+ peripheral blood monocytes cultured to DC
Experiment: Maturation of monocyte-derived dendritic cells to CD83+ cells
Type: cell-based
Details: 15 ng/ml, within 1 day
Description: CD14^+ peripheral blood monocytes are adhered to tissue culture flasks and cultured in the presence of 1% AB serum, GM-CSF (400 ng/ml) and IL-4 (400 IU/ml) for 7 days. This yields cells with the morphology of DC and a mean of 49% with the CD1a^+ marker which is indicative of the immature form of the DC capable of taking up and presenting antigen. These cells are then matured to CD83^+ cells by the addition of TNFα (15 ng/ml), which enables the DC to present antigen to cytotoxic T-cells. 7% of the cells become CD83^+ within 1 day, but 3 days at least are required for maximum effect. It is possible that monocyte conditioned medium could replace the 1% AB serum but this is probably not desirable.

Molecule | cells becoming CD83+ [%]
TNFα | 7
